Results from PubChem BioAssay AID248 (DTP/NCI, 2004).
“And” between values parts separate entries of the source, which are not always exact repeats. Identical values can stand only once. Inconclusive results and toxic doses are left out.

Tested on: L1210 leukemia ip in BDF1 mice, survival T/C
Assay: NCI In Vivo Anticancer Drug Screen. Data for tumor model L1210 Leukemia (intraperitoneal) in B6D2F1 (BDF1) mice
Conditions: endpoint: mean survival time, higher = longer survival
How it was run: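 Mice bearing the transplanted tumor received compound or vehicle. Survival of the treated group was divided by that of the vehicle-treated control group to give the ratio.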

[1] = dose: 100.0 mg/kg/injection, schedule: Q04DX002 (ip), vehicle: saline
[2] = dose: 200.0 mg/kg/injection, schedule: Q04DX002 (ip), vehicle: saline
[3] = dose: 50.0 mg/kg/injection, schedule: Q01DX009 (ip), vehicle: Klucel (hydroxypropylcellulose) (HPC)
[4] = dose: 100.0 mg/kg/injection, schedule: Q04DX003 (ip), vehicle: saline
[5] = dose: 200.0 mg/kg/injection, schedule: Q04DX003 (ip), vehicle: saline
[6] = dose: 100.0 mg/kg/injection, schedule: Q01DX009 (ip), vehicle: Klucel (hydroxypropylcellulose) (HPC)
[7] = dose: 200.0 mg/kg/injection, schedule: Q01DX009 (ip), vehicle: Klucel (hydroxypropylcellulose) (HPC)
[8] = dose: 100.0 mg/kg/injection, schedule: Q04DX003 (ip), vehicle: Klucel (hydroxypropylcellulose) (HPC)
[9] = dose: 200.0 mg/kg/injection, schedule: Q04DX003 (ip), vehicle: Klucel (hydroxypropylcellulose) (HPC)
[10] = dose: 400.0 mg/kg/injection, schedule: Q04DX003 (ip), vehicle: Klucel (hydroxypropylcellulose) (HPC)
[11] = dose: 75.0 mg/kg/injection, schedule: Q01DX001 (ip), vehicle: carboxymethylcellulose (CMC)
[12] = dose: 150.0 mg/kg/injection, schedule: Q01DX001 (ip), vehicle: carboxymethylcellulose (CMC)

With `NCCCCCCN=C(N)C(N)=NCCCCCCN` the T/C (dose: 1.5 mg/kg/injection, schedule: Q01DX009 (ip), vehicle: Klucel (hydroxypropylcellulose) (HPC)) was 96 % of control, the T/C (dose: 3.0 mg/kg/injection, schedule: Q01DX009 (ip), vehicle: Klucel (hydroxypropylcellulose) (HPC)) was 112 % of control and the T/C (dose: 6.0 mg/kg/injection, schedule: Q01DX009 (ip), vehicle: Klucel (hydroxypropylcellulose) (HPC)) was 102 % of control. The T/C (dose: 12.5 mg/kg/injection, schedule: Q04DX003 (ip), vehicle: Klucel (hydroxypropylcellulose) (HPC)) was 93 % of control and the T/C (dose: 25.0 mg/kg/injection, schedule: Q04DX003 (ip), vehicle: Klucel (hydroxypropylcellulose) (HPC)) was 93 % of control.

With `CC(C)(C)C(C(=O)O)C(=O)O` the T/C (dose: 50.0 mg/kg/injection, schedule: Q04DX002 (ip), vehicle: saline) was 98 % of control, the T/C [1] was 98 % of control and the T/C [2] was 92 % of control.

With `CC(C#N)Oc1cccc2ccccc12` (centres undefined) the T/C (dose: 100.0 mg/kg/injection, schedule: Q01DX009 (ip), vehicle: DMSO) was 87 % of control, the T/C (dose: 100.0 mg/kg/injection, schedule: Q04DX003 (ip), vehicle: DMSO) was 92 % of control and the T/C (dose: 200.0 mg/kg/injection, schedule: Q01DX009 (ip), vehicle: DMSO) was 87 % of control. The T/C (dose: 200.0 mg/kg/injection, schedule: Q04DX003 (ip), vehicle: DMSO) was 87 % of control and the T/C (dose: 400.0 mg/kg/injection, schedule: Q04DX003 (ip), vehicle: DMSO) was 103 % of control.

For `O=C(CSCC(=O)c1ccccc1)c1ccccc1`, the T/C (dose: 12.5 mg/kg/injection, schedule: Q01DX009 (ip), vehicle: Klucel (hydroxypropylcellulose) (HPC)) was 93 % of control, the T/C (dose: 25.0 mg/kg/injection, schedule: Q01DX009 (ip), vehicle: Klucel (hydroxypropylcellulose) (HPC)) was 104 % of control and the T/C [3] was 112 % of control. The T/C (dose: 80.0 mg/kg/injection, schedule: Q01DX009 (ip), vehicle: Klucel (hydroxypropylcellulose) (HPC)) was 103 % of control, the T/C (dose: 115.0 mg/kg/injection, schedule: Q01DX009 (ip), vehicle: Klucel (hydroxypropylcellulose) (HPC)) was 100 % of control and the T/C (dose: 170.0 mg/kg/injection, schedule: Q01DX009 (ip), vehicle: Klucel (hydroxypropylcellulose) (HPC)) was 100 % of control.

For `O=C(O)c1ccccc1Oc1ccccc1C(=O)O`, the T/C [4] was 102 % of control, the T/C [5] was 100 % of control and the T/C (dose: 400.0 mg/kg/injection, schedule: Q04DX003 (ip), vehicle: saline) was 91 % of control.

For `CCc1ccc(C(C)=O)o1`, the T/C (dose: 100.0 mg/kg/injection, schedule: Q01DX001 (ip), vehicle: other) was 104 % of control, the T/C (dose: 200.0 mg/kg/injection, schedule: Q01DX001 (ip), vehicle: other) was 108 % of control and the T/C (dose: 400.0 mg/kg/injection, schedule: Q01DX001 (ip), vehicle: other) was 111 % of control.

With `On1nc(-c2ccccc2)c(-c2c(-c3ccccc3)nn(O)c2-c2ccccc2)c1-c1ccccc1` the T/C [3] was 90 % of control, the T/C [6] was 90 % of control and the T/C [7] was 97 % of control.

With `CCC(c1ccc2cc(OC)ccc2c1)C(C(=O)O)C(=O)O` (centres undefined) the T/C [3] was 96 % of control, the T/C [6] was 107 % of control and the T/C [7] was 96 % of control.

`CCS(=O)(=O)C(CCC(S(=O)(=O)CC)S(=O)(=O)CC)S(=O)(=O)CC` was tested, and the T/C (dose: 100.0 mg/kg/injection, schedule: Q01DX001 (ip), vehicle: saline) was 110 % of control, the T/C (dose: 200.0 mg/kg/injection, schedule: Q01DX001 (ip), vehicle: saline) was 96 % of control and the T/C (dose: 400.0 mg/kg/injection, schedule: Q01DX001 (ip), vehicle: saline) was 102 % of control.

In the case of `COc1cccc2c1C(=O)c1c(O)c3c(c(O)c1C2=O)C[C@@](O)(/C(C)=N\NC(=O)CO)C[C@@H]3OC1CC(N)C(O)C(C)O1` (some centres undefined), the T/C (dose: 0.88 mg/kg/injection, schedule: Q04DX003 (ip), vehicle: saline) is reported as 119 % of control, the T/C (dose: 1.33 mg/kg/injection, schedule: Q04DX003 (ip), vehicle: saline) is reported as 124 % of control and the T/C (dose: 3.0 mg/kg/injection, schedule: Q04DX003 (ip), vehicle: saline) is reported as 120 % of control. The T/C (dose: 3.5 mg/kg/injection, schedule: Q01DX009 (ip), vehicle: saline) was 122 % of control, the T/C (dose: 6.25 mg/kg/injection, schedule: Q01DX009 (ip), vehicle: saline) was 105 % of control and the T/C (dose: 7.0 mg/kg/injection, schedule: Q01DX009 (ip), vehicle: saline) was 123 % of control. For the same compound, the T/C (dose: 12.5 mg/kg/injection, schedule: Q01DX009 (ip), vehicle: saline) was 116 % of control, the T/C (dose: 14.0 mg/kg/injection, schedule: Q01DX009 (ip), vehicle: saline) was 95 % of control and 99 % of control and the T/C (dose: 14.0 mg/kg/injection, schedule: Q04DX003 (ip), vehicle: saline) was 108 % of control. For the same compound, the T/C (dose: 16.0 mg/kg/injection, schedule: Q04DX003 (ip), vehicle: saline) was 112 % of control, the T/C (dose: 25.0 mg/kg/injection, schedule: Q04DX003 (ip), vehicle: saline) was 102 % of control and the T/C (dose: 32.0 mg/kg/injection, schedule: Q04DX003 (ip), vehicle: saline) was 111 % of control. For the same compound, the T/C (dose: 50.0 mg/kg/injection, schedule: Q04DX003 (ip), vehicle: saline) was 91 % of control.

`COc1ccc(C(CC(=O)c2ccc3c(c2)OCO3)C(=O)O)cc1OC` (centres undefined) was tested, and the T/C [6] was 93 % of control, the T/C [8] was 100 % of control and the T/C [7] was 98 % of control. For the same compound, the T/C [9] was 96 % of control, the T/C (dose: 400.0 mg/kg/injection, schedule: Q01DX009 (ip), vehicle: Klucel (hydroxypropylcellulose) (HPC)) was 93 % of control and the T/C [10] was 93 % of control.

`C(=C\c1cccc2ccccc12)/c1ccncc1` was tested, and the T/C [11] was 97 % of control, the T/C [12] was 88 % of control and the T/C (dose: 300.0 mg/kg/injection, schedule: Q01DX001 (ip), vehicle: carboxymethylcellulose (CMC)) was 90 % of control.

In the case of `Nc1cc(Cl)ccc1N1CCCC1`, the T/C [4] is reported as 94 % of control and the T/C [5] is reported as 90 % of control.

`CC(=O)OC1CCC2(C)C(CCC3C2CC(OC(C)=O)C2(C)C3CCC2C2(C)SCCS2)C1` (centres undefined) was tested, and the T/C (dose: 100.0 mg/kg/injection, schedule: Q04DX002 (ip), vehicle: Klucel (hydroxypropylcellulose) (HPC)) was 94 % of control and the T/C (dose: 400.0 mg/kg/injection, schedule: Q04DX002 (ip), vehicle: Klucel (hydroxypropylcellulose) (HPC)) was 87 % of control.

With `CC1([N+](=O)[O-])COP(=O)(NC2CC2)OC1` (centres undefined) the T/C (dose: 50.0 mg/kg/injection, schedule: Q01DX001 (ip), vehicle: carboxymethylcellulose (CMC)) was 97 % of control, the T/C (dose: 100.0 mg/kg/injection, schedule: Q01DX001 (ip), vehicle: carboxymethylcellulose (CMC)) was 97 % of control and the T/C (dose: 200.0 mg/kg/injection, schedule: Q01DX001 (ip), vehicle: carboxymethylcellulose (CMC)) was 103 % of control. For the same compound, the T/C (dose: 400.0 mg/kg/injection, schedule: Q01DX001 (ip), vehicle: carboxymethylcellulose (CMC)) was 97 % of control.

In the case of `CC(C)CCC(CCC(C)C)NCC(C)OC(=O)c1ccc(N)cc1` (centres undefined), the T/C [11] is reported as 93 % of control and the T/C [12] is reported as 89 % of control.

`CC1(C)N=C(N)N=C(N)N1c1ccc(OCCOc2ccc(S(=O)(=O)F)cc2)c(Cl)c1` was tested, and the T/C (dose: 33.0 mg/kg/injection, schedule: Q04DX003 (ip), vehicle: Klucel (hydroxypropylcellulose) (HPC)) was 102 % of control, the T/C (dose: 33.0 mg/kg/injection, schedule: Q04DX003 (ip), vehicle: saline sonified) was 117 % of control and the T/C (dose: 50.0 mg/kg/injection, schedule: Q01DX009 (ip), vehicle: saline sonified) was 152 % of control. For the same compound, the T/C (dose: 50.0 mg/kg/injection, schedule: Q04DX003 (ip), vehicle: Klucel (hydroxypropylcellulose) (HPC)) was 112 % of control, the T/C (dose: 75.0 mg/kg/injection, schedule: Q04DX003 (ip), vehicle: Klucel (hydroxypropylcellulose) (HPC)) was 112 % of control and the T/C (dose: 75.0 mg/kg/injection, schedule: Q04DX003 (ip), vehicle: saline sonified) was 113 % of control. The T/C (dose: 100.0 mg/kg/injection, schedule: Q01DX009 (ip), vehicle: saline sonified) was 109 % of control, the T/C (dose: 100.0 mg/kg/injection, schedule: Q04DX003 (ip), vehicle: other) was 96 % of control and the T/C (dose: 200.0 mg/kg/injection, schedule: Q04DX003 (ip), vehicle: other) was 103 % of control. For the same compound, the T/C (dose: 400.0 mg/kg/injection, schedule: Q04DX003 (ip), vehicle: other) was 96 % of control.

For `NCc1ccc(NC(=O)c2ccc(C(=O)Nc3ccc(CN)cc3)c(N)c2)cc1`, the T/C (dose: 21.0 mg/kg/injection, schedule: Q01DX Z (ip), vehicle: water) was 100 % of control and the T/C (dose: 42.0 mg/kg/injection, schedule: Q01DX Z (ip), vehicle: water) was 98 % of control.

For `CC(C)C1CC(C)(C)c2cc(O)ccc2O1` (centres undefined), the T/C [8] was 101 % of control, the T/C [9] was 105 % of control and the T/C [10] was 100 % of control.

`COC1OC2COc3ccccc3OC2C2C1N2C(N)=S` (centres undefined) was tested, and the T/C [1] was 96 % of control, the T/C [2] was 100 % of control and the T/C (dose: 400.0 mg/kg/injection, schedule: Q04DX002 (ip), vehicle: saline) was 100 % of control.
